In patent publication US20150210977A1, “BACTERIUM WITH INCREASED TOLERANCE TO BUTYRIC ACIDS” (LanzaTech New Zealand Limited, priority 2014, published 2015):
Values after ≈ are worked out from the molar mass of the structure shown.

Experiments:
Type in all cases: cell-based, Clostridium autoethanogenum
[1] = tested on: C. autoethanogenum LZ1561; assay: Selection of a 2-HIBA tolerant strain in continuous fermentation
Protocol: Microorganisms unable to cope with the increasing 2-HIBA concentration were diluted out from the fermentation system, while microorganisms with improved tolerance were retained. Glycerol stocks were collected as the culture resistance improved. CSTRs were inoculated with C. autoethanogenum LZ1561. The reactors were started in batch mode and turned to continuous mode at a dilution rate of 1.5 after approximately 40 hours. Once operationally stable, 2-HIBA (1.1 g/L) was added to the feeding media which was run into the reactor at a dilution rate of 1.5. […] During selection in continuous fermentation, the 2-HIBA concentration tolerated by the C. autoethanogenum LZ1561 culture was reproducibly raised from 1.1 g/L to 6.7 g/L ([…]) by slowly increasing the 2-HIBA concentration over a period of 85 days.

[2] = tested on: C. autoethanogenum; assay: Toxicity of 2-HIBA under continuous fermentation (CSTR), gas uptake and metabolite monitoring; settings: early effect on gas uptake and metabolite production
Description: CSTRs were inoculated with C. autoethanogenum and brought to a stable optical density (OD600 nm) and dilution rate (D˜1.5). For all fermentations in CSTRs, chemically defined media was used containing no yeast extract. Parameters were monitored on an hourly basis, including metabolites (measured by HPLC) and gas composition in/out (measured by GC). Early effects of 2-HIBA on culture metabolism included a measurable reduction in CO and/or H2 utilization rates, followed by a decline in metabolite production rate. Two CSTRs were run in parallel and received the same inoculum and media in flow rate and composition. The reactors were turned continuous at day 0.9 with media containing 1.5 g/L 2-HIBA at a dilution rate of 1.5. […] The process was then repeated on the same culture in one reactor while the other served as a control. Following introduction of 2-HIBA, the metabolic profile of C. autoethanogenum shifted to favor 2,3-butanediol production, capping ethanol production. Biomass production was reduced under increasing inflow from 2-HIBA and overall metabolic levels drop caused by reduced CO and H2 uptake. By removing 2-HIBA from the inflow media, gas uptake and metabolic production is stabilized. This indicates a reversible reaction to 2-HIBA. The average effect level of 2-HIBA in a continuous CSTR system was calculated as 1.15 g/L.

[3] = tested on: C. autoethanogenum LZ1561; assay: Growth of C. autoethanogenum LZ1561 challenged with 2-HIBA in serum bottles; parameters: growth rate μ, Set 1 / growth rate μ, Set 2: unit not given here
Protocol: Clostridium strains were grown at 37° C. in PETC media at pH 5.6 using standard anaerobic techniques (Hungate, Meth Microbiol, 3B: 117-132, 1969; Wolfe, Adv Microb Physiol, 6: 107-146, 1971). Fructose (heterotrophic growth) or 30 psi CO-containing steel mill gas (collected from New Zealand Steel site in Glenbrook, NZ; composition: 44% CO, 32% N2, 22% CO2, 2% H2) in the headspace (autotrophic growth) was used as substrate. For solid media, 1.2% bacto agar (BD, Frankton Lakes, N.J. 07417, USA) was added.
Two sets of serum bottle experiments were performed with media containing 0, 0.5, 1, 1.5, 2, 3, or 4 g/L of 2-HIBA. An average of optical density (OD) data from both sets of growth experiments was plotted. Data points outside the visually observed exponential growth phase were removed and the growth rate (g) for each concentration of 2-HIBA was calculated by fitting an exponential trend line (FIG. 1).
FIGS. 1A-1D show the growth rates of C. autoethanogenum challenged with different concentrations of 2-HIBA. FIG. 1A and FIG. 1B show the respective difference in growth curves for the two sets of growth experiments (n=3). FIG. 1C and FIG. 1D show exponentially fitted lines corresponding to FIG. 1A and FIG. 1B, respectively. […] To extract the growth rate from the trend line equations, the following equation was used OD=OD0Xe^μt, where OD=y, t=x in the trend line equations, providing the calculated growth rates listed below.
The growth rates (μ) were plotted in Prism6 (GraphPad, USA) as μ vs log10 [2-HIBA] to determine the concentration of 2-HIBA at which the growth rate of C. autoethanogenum is 50% (FIG. 2).

**Q.** What does the source list for `CC(C)(O)C(=O)O` [2-HIBA, 2-hydroxyisobutyric acid]?
**A.** increase in tolerance ([1]; 1.1 g/L to 6.7 g/L during selection in continuous fermentation): 600%; 2-HIBA concentration tolerated by the culture ([1]; C. autoethanogenum LZ1561 culture at start of selection): 1.1 g/L; 2-HIBA concentration tolerated by the culture ([1]; after slowly increasing the 2-HIBA concentration over a period of 85 days): 6.7 g/L; average effect level of 2-HIBA in a continuous CSTR system [2]: 1.15 g/L; IC50 ([3]; Clostridium autoethanogenum, LZ1561, μ vs log10 [2-HIBA], read-out: IC50 (concentration of 2-HIBA at which the growth rate is 50%)): 2200 µg/mL (≈ 21.1 mM); growth rate μ, Set 1 ([3]; [2-HIBA] 0.5 g/L): 0.096; growth rate μ, Set 2 ([3]; [2-HIBA] 0.5 g/L): 0.104; growth rate μ, Set 1 ([3]; [2-HIBA] 1 g/L): 0.092; growth rate μ, Set 2 ([3]; [2-HIBA] 1 g/L): 0.105; growth rate μ, Set 1 ([3]; [2-HIBA] 1.5 g/L): 0.078; growth rate μ, Set 2 ([3]; [2-HIBA] 1.5 g/L): 0.089; growth rate μ, Set 1 ([3]; [2-HIBA] 2 g/L): 0.082; growth rate μ, Set 2 ([3]; [2-HIBA] 2 g/L): 0.090; growth rate μ, Set 1 ([3]; [2-HIBA] 3 g/L): 0.001; growth rate μ, Set 2 ([3]; [2-HIBA] 3 g/L): 0.004; growth rate μ, Set 1 ([3]; [2-HIBA] 4 g/L): 0.004; growth rate μ, Set 2 ([3]; [2-HIBA] 4 g/L): −0.005; effect on growth ([3]; concentration up to 1 g/L of 2-HIBA): little or no effect; effect on growth ([3]; over 2 g/L of 2-HIBA): acute; effect on growth ([3]; up to a concentration of 2 g/L of 2-HIBA): relatively small effect
